For 14 compounds, IC50 results are on record in patent US20230031406A1, “COMPOUNDS AND COMPOSITIONS FOR TREATING CONDITIONS ASSOCIATED WITH NLRP ACTIVITY” (Novartis AG, priority 2018, published 2023).

Where two headings read alike, the source gives them in different places.

In the test the test system is PMA-differentiated THP-1 cells. Put plainly: IL-1β production in PMA-differentiated THP-1 cells stimulated with gramicidin (hTHP-1 assay containing 2% fetal bovine serum; Procedures 1 and 2). Format: cell-based, human. The note with it: 2% fetal bovine serum. In a few lines: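 THP-1 cells were differentiated with PMA (20 ng/ml, 16-18 h), detached, and plated at 50,000 cells/well in RPMI 1640 with 2% FBS. They were pre-treated with compound (0.0017–100 μM, 0.37% DMSO) for 1 h, then stimulated with gramicidin (5 μM) for 2 h. Supernatant IL-1β was measured by HTRF.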

[1] abbreviates: Table B2, class symbols, read-out: hTHP-1 IC50.
[2] abbreviates: Homo sapiens, THP-1, Table B2, class symbols, read-out: hTHP-1 IC50.
[3] abbreviates: Homo sapiens, THP-1, Table B1, class symbols, read-out: Average IC50 of compounds in hTHP-1 assay: hTHP-1 IC50.
[4] abbreviates: Homo sapiens, THP-1, Table B3, hTHP-1 assay, class symbols, read-out: IC50.

As a reminder, the IC50 is the concentration that gives 50% inhibition.

For the compound `CC1CCc2c1nc1c(c2NC(=O)N=S(N)(=O)c2cnn(C(C)C)c2)CCC1` (single isomer, unassigned) [Compound 171c, (R, R) and (R, S) or (S, R) and (S, S)-1-Isopropyl-N′-((3-methyl-1,2,3,5,6,7-hexahydrodicyclopenta [b,e]pyridin-8-yl)carbamoyl)-1H-pyrazole-4-sulfonimidamide], under setting [1], the IC50 was in the range of 1000 to 5000 nM.
In the case of `CCc1csc(S(N)(=O)=NC(=O)Nc2c3c(nc4c2CC[C@H]4C)CCC3)c1` (stereo partly drawn) [Compound 721c, 4-Ethyl-N′-(((R)-3-methyl-1,2,3,5,6,7-hexahydrodicyclopenta [b,e]pyridin-8-yl)carbamoyl)thiophene-2-sulfonimidamide], the half-inhibitory concentration (IC50) under setting [2] lay in the range of 40 to 200 nM.
Take `CCC1CCc2c1nc1c(c2NC(=O)N=S(N)(=O)c2cnc(C(C)(C)O)s2)CCC1` (centres unmarked) [Compound 662e]: under setting [1], the IC50 lay within 1000 to 5000 nM.
In the case of `CC(=O)c1csc(S(N)(=O)=NC(=O)Nc2c3c(nc4c2CC[C@H]4C)CCC3)c1` (single isomer, unassigned) [Example 665, (R) or (S)-4-acetyl-N′-(((R)-3-methyl-1,2,3,5,6,7-hexahydrodicyclopenta[b,e]pyridin-8-yl)carbamoyl)thiophene-2-sulfonimidamide], the IC50 (Table B3, hTHP-1 assay, class symbols, read-out: IC50) lay within 200 to 1000 nM.
Turning to `CC1(C)CCc2c1nc1c(c2NC(=O)N=S(N)(=O)c2cnn(C(F)F)c2)CCC1` (centres unmarked) [Compound 637, 1-(Difluoromethyl)-N′-((3,3-dimethyl-1,2,3,5,6,7-hexahydrodicyclopenta[b,e]pyridin-8-yl)carbamoyl)-1H-pyrazole-4-sulfonimidamide], under setting [2], the concentration for half-maximal inhibition (IC50) fell in the range of 5000 to 30000 nM.
Turning to `CC(C)(O)c1nc(S(N)(=O)=NC(=O)Nc2c3c(nc4c2CCC4)CCC3)cs1` (centres unmarked) [Compound 154], under setting [3], the concentration for half-maximal inhibition (IC50) lay in the range of 200 to 1000 nM.
As for `Cc1nc(C)c(C)c(NC(=O)N=S(N)(=O)c2cnc(C(C)(C)O)s2)c1C` (centres unmarked) [Compound 133, 2-(2-hydroxypropan-2-yl)-N′-((2,3,5,6,-tetramethylpyridin-4-yl)carbamoyl)thiazole-5-sulfonimidamide], the IC50 (Homo sapiens, THP-1, Table B1, numeric bounds, read-out: Average IC50 of compounds in hTHP-1 assay: hTHP-1 IC50) was greater than 14000 nM.
As to `CC(C)n1cc(F)c(S(N)(=O)=NC(=O)Nc2c3c(nc4c2CCC4)CCC3)n1` (single isomer, unassigned) [Example 785, (R) or (S)-4-fluoro-N′-((1,2,3,5,6,7-hexahydrodicyclopenta [b,e]pyridin-8-yl)carbamoyl)-1-isopropyl-1H-pyrazole-3-sulfonimidamide], the IC50 (Table B4, class symbols, read-out: hTHP-1 IC50) lay in the range of 40 to 200 nM.
In the case of `CCn1cc(F)c(S(N)(=O)=NC(=O)Nc2c3c(nc4c2CC[C@@H]4C)CCC3)n1` (stereo partly drawn) [Example 616, 1-Ethyl-4-fluoro-N′-(((S)-3-methyl-1,2,3,5,6,7-hexahydrodicyclopenta[b,e]pyridin-8-yl)carbamoyl)-1H-pyrazole-3-sulfonimidamide], the IC50 under setting [4] is 200 to 1000 nM.
Same read-out and setting: in the case of `Cc1c(C(F)(F)F)nc2c(c1NC(=O)N=[S@@](N)(=O)c1cnc(C(C)(C)O)s1)C(C)CC2` (stereo partly drawn) [Example 575, (R)-N′-((3,5-dimethyl-2-(trifluoromethyl)-6,7-dihydro-5H-cyclopenta[b]pyridin-4-yl)carbamoyl)-2-(2-hydroxypropan-2-yl)thiazole-5-sulfonimidamide] it was 1000 to 5000 nM.
For the compound `CCn1ccc(S(N)(=O)=NC(=O)Nc2c3c(nc(C4CC4)c2C2CC2)CCC3)n1` (centres unmarked) [Compound 726], under setting [2], the half-inhibitory concentration (IC50) lay in the range of 1000 to 5000 nM.
For `Cc1c(CC(F)(F)F)nc2c(c1NC(=O)N=S(N)(=O)c1nn(C(F)F)cc1F)CCC2` (centres unmarked) [Example 617, 1-(Difluoromethyl)-4-fluoro-N′-((3-methyl-2-(2,2,2-trifluoroethyl)-6,7-dihydro-5H-cyclopenta[b]pyridin-4-yl)carbamoyl)-1H-pyrazole-3-sulfonimidamide], the half-maximal inhibitory concentration (IC50) under setting [4] fell in the range of 5000 to 30000 nM.
As for `CC(C)n1nc(S(N)(=O)=NC(=O)Nc2c3c(nc4c2CCC4(C)C)CCC3)cc1CO` (single isomer, unassigned) [Compound 652a], the IC50 under setting [2] was 200 to 1000 nM.
On to `CC(C)(O)c1csc(S(N)(=O)=NC(=O)Nc2c3c(nc4c2CCC42CC2)CCC3)c1` (centres unmarked) [Compound 114], for which the IC50 under setting [3] lay within 40 to 200 nM.
